# Test results as given in patent US7858635B2 (priority 2005, dated 2010).
# Where two headings read alike, the source gives them in different places.
# Key:
# M1 muscarinic receptor = biological target: T1, M1 muscarinic receptor (Homo sapiens, UniProt P11229); experiment: Functional mobilization of intracellular calcium (FLIPR, Fluo-3), M1-CHO cells; format: cell-based; details: for Emax: 100% efficacy is the maximum response obtained with the Carbachol control, read-out: M1 Efficacy
# T1 construct: expressed in transfected cells; host or cells: CHO cells (M1-CHO, under zeocin and G418 selection)
# T1 sequence (P11229 1-460): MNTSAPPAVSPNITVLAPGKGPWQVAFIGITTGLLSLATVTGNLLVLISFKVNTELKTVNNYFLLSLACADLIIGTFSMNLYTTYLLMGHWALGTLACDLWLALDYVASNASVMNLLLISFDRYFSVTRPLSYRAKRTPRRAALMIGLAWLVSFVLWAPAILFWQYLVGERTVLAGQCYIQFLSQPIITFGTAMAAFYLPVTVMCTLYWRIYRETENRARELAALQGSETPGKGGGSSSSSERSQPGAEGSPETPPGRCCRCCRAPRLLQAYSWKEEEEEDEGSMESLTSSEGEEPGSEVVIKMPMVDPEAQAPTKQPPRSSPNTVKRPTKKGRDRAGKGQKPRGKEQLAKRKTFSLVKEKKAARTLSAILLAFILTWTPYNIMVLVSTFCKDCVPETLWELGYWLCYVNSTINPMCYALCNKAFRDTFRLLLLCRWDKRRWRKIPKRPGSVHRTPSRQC
# Procedure, shortened: (§1)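 Fluo-3 read-out, ex 488/em 540 nm, 60 sec on FLIPR 3. For agonist mode, compound added directly; for inhibition, 15 min compound pre-incubation before carbachol at EC80 (added as a 3× solution), or co-application. Buffer pH 7.4 with 1 mM probenecid; DMSO 0.5%.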
# M4 muscarinic receptor = biological target: T2, M4 muscarinic receptor (Homo sapiens, UniProt P08173); experiment: Functional mobilization of intracellular calcium (FLIPR, Fluo-3), M4-CHO cells; format: cell-based; details: for Emax: 100% efficacy is the maximum response obtained with the Carbachol control, read-out: M4 Efficacy
# T2 construct: expressed in transfected cells; host or cells: CHO cells (M4-CHO, under puromycin, zeocin and blasticidin selection)
# T2 sequence (P08173 1-479): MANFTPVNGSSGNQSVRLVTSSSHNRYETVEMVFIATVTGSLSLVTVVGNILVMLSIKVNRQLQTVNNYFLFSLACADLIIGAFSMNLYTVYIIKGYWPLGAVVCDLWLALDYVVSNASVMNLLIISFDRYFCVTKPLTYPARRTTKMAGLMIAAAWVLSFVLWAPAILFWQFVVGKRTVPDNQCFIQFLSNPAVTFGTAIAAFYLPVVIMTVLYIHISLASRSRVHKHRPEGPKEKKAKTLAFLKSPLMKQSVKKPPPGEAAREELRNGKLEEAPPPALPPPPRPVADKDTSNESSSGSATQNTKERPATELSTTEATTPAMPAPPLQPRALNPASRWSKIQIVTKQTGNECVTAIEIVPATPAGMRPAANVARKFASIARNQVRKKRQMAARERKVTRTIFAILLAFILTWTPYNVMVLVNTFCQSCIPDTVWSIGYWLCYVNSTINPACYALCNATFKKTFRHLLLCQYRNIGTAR
# Procedure, shortened: as §1
# [1] = compound nos. 1-454, M1-CHO cells, calcium mobilization
# [2] = compound nos. 1-454, M4-CHO cells, calcium mobilization
Structure (SMILES),Emax (M1 muscarinic receptor; compound nos. 455-509),M1 Activity (M1 muscarinic receptor; compounds 455-509),Emax (M4 muscarinic receptor; compound nos. 455-509),M4 Activity (M4 muscarinic receptor; compounds 455-509),Emax (M1 muscarinic receptor; compound nos. 1-454),M1 Activity (M1 muscarinic receptor; [1]),Emax (M4 muscarinic receptor; compound nos. 1-454),M4 Activity (M4 muscarinic receptor; [2]),M1 Activity (M1 muscarinic receptor; compound nos. 1-454),M4 Activity (M4 muscarinic receptor; compound nos. 1-454)
CC(=O)N1CC2(CCN(C3CCN(c4nc(C)ns4)CC3)CC2)c2ccccc21 [compound 482],> 100%,+++ (activity was measured to be less than or equal to 2.0 μM),25 to 100%,++ (activity was measured to be between 2.0 μM and 5.0 μM),,,,,,
CCCOC(=O)N1CCC(CN2CCC3(CC2)CN(C(C)=O)c2ccc(F)cc23)CC1 [compound 98],,,,,65 to 85%,+++ (activity was measured to be less than or equal to 0.7 μM),< 55%,++ (activity was measured to be between 0.1 μM and 4.0 μM),,
C#CCOC(=O)N1CCC(CN2CCC3(CC2)C[C@H](NC(C)=O)c2ccccc23)CC1 [compound 364],,,,,> 85%,+++ (activity was measured to be less than or equal to 0.7 μM),< 55%,+ (activity was measured to be greater than or equal to 4.0 μM),,
CCOC(=O)N1CCC(N2CCC3(CC2)CN(C(=O)C2CC2)c2ccc(F)cc23)CC1 [compound 136],,,,,> 85%,+++ (activity was measured to be less than or equal to 0.7 μM),> 70%,+++ (activity was measured to be less than or equal to 0.1 μM),,
CS(=O)(=O)N[C@@H]1CC2(CCN(C[C@H]3C[C@H]4CC[C@H]3C4)CC2)c2ccccc21 [compound 227],,,,,> 85%,+++ (activity was measured to be less than or equal to 0.7 μM),> 70%,+++ (activity was measured to be less than or equal to 0.1 μM),,
CN(C)C(=O)N1CC2(CCN(C3CC4CCC(C3)N4C(=O)OCCF)CC2)c2cc(F)ccc21 (stereo not shown) [compound 32],,,,,> 85%,+++ (activity was measured to be less than or equal to 0.7 μM),55 to 70%,+++ (activity was measured to be less than or equal to 0.1 μM),,
CCOC(=O)N1CCC(CN2CCC3(CC2)C(=O)N(C)c2ccccc23)CC1 [compound 327],,,,,< 65%,+ (activity was measured to be greater than or equal to 3.0 μM),< 55%,+ (activity was measured to be greater than or equal to 4.0 μM),,
O=C(C1CC1)N1CC2(CCN(C3CC4CCC(C3)N4C(=O)O[C@@H]3CCOC3)CC2)c2cc(F)ccc21 (stereo partly shown) [compound 87],,,,,65 to 85%,+++ (activity was measured to be less than or equal to 0.7 μM),< 55%,+ (activity was measured to be greater than or equal to 4.0 μM),,
COC(=O)N1CCCC(N2CCC3(CC2)CN(C(C)=O)c2ccc(F)cc23)CC1 (stereo not shown) [compound 132],,,,,> 85%,+++ (activity was measured to be less than or equal to 0.7 μM),> 70%,+++ (activity was measured to be less than or equal to 0.1 μM),,
Fc1ccc2c(c1)C1(CCN(C[C@H]3C[C@H]4C=C[C@H]3C4)CC1)CO2 [compound 376],,,,,65 to 85%,,55 to 70%,,+++ (activity was measured to be less than or equal to 0.7 μM),+ (activity was measured to be greater than or equal to 4.0 μM)
CCOC(=O)N1CCC(N2CCC3(CC2)CN(C(=O)C(C)(C)C)c2ccc(F)cc23)CC1 [compound 282],,,,,< 65%,+++ (activity was measured to be less than or equal to 0.7 μM),55 to 70%,++ (activity was measured to be between 0.1 μM and 4.0 μM),,
CC(=O)N[C@H]1CC2(CCN(C3CCC(C)CC3)CC2)c2ccccc21 (stereo partly shown) [compound 280],,,,,65 to 85%,+ (activity was measured to be greater than or equal to 3.0 μM),55 to 70%,+ (activity was measured to be greater than or equal to 4.0 μM),,
COc1ccc(N2CCC(N3CCC4(CC3)CN(C(=O)N(C)C)c3ccc(F)cc34)CC2)cc1 [compound 442],,,,,65 to 85%,,55 to 70%,,++ (activity was measured to be between 0.7 μM and 3.0 μM),++ (activity was measured to be between 0.1 μM and 4.0 μM)
Clc1ccc2c(c1)C1(CCN(C3CCCCC3)CC1)CN2 [compound 155],,,,,> 85%,+++ (activity was measured to be less than or equal to 0.7 μM),> 70%,+ (activity was measured to be greater than or equal to 4.0 μM),,
O=C(OCC1CCCO1)N1C2CCC1CC(N1CCC3(CC1)COc1ccc(F)cc13)C2 (stereo not shown) [compound 363],,,,,< 65%,++ (activity was measured to be between 0.7 μM and 3.0 μM),< 55%,+ (activity was measured to be greater than or equal to 4.0 μM),,
CCCC(=O)N1CC2(CCN(C3CCN(C(=O)OCC)CC3)CC2)c2cc(F)ccc21 [compound 324],,,,,65 to 85%,++ (activity was measured to be between 0.7 μM and 3.0 μM),55 to 70%,+ (activity was measured to be greater than or equal to 4.0 μM),,
CC(=O)N1CC2(CCN(C3CCC(C(F)(F)F)CC3)CC2)c2cc(F)ccc21 (stereo not shown) [compound 236],,,,,65 to 85%,+++ (activity was measured to be less than or equal to 0.7 μM),55 to 70%,++ (activity was measured to be between 0.1 μM and 4.0 μM),,
c1ccc2c(c1)CCC21CCN(CC2CCOCC2)CC1 [compound 18],,,,,< 65%,+++ (activity was measured to be less than or equal to 0.7 μM),> 70%,++ (activity was measured to be between 0.1 μM and 4.0 μM),,
Clc1ccc2c(c1)C1(CCN(C3CC4CCC3C4)CC1)CN2 (stereo not shown) [compound 224],,,,,65 to 85%,+ (activity was measured to be greater than or equal to 3.0 μM),< 55%,+ (activity was measured to be greater than or equal to 4.0 μM),,
CCOC(=O)N1C2CCC1CC(N1CCC3(CC1)CN(C(=O)OC)c1ccc(F)cc13)C2 (stereo not shown) [compound 167],,,,,65 to 85%,+++ (activity was measured to be less than or equal to 0.7 μM),> 70%,++ (activity was measured to be between 0.1 μM and 4.0 μM),,
CCOC(=O)N1CCC(N2CCC3(CC2)CN(C(=O)c2ccccc2OC)c2ccc(F)cc23)CC1 [compound 262],,,,,< 65%,+ (activity was measured to be greater than or equal to 3.0 μM),< 55%,+ (activity was measured to be greater than or equal to 4.0 μM),,
CC(=O)N[C@H]1CC2(CCN(CC3CCN(C(=O)OC(C)C)CC3)CC2)c2ccccc21 [compound 399],,,,,65 to 85%,,< 55%,,++ (activity was measured to be between 0.7 μM and 3.0 μM),++ (activity was measured to be between 0.1 μM and 4.0 μM)
